In patent publication US10758534B2 (Vertex Pharmaceuticals Incorporated, priority 2014, dated 2020) one finds EC30 data, which are given here for 27 compounds.

In the experiment the target is T1, F508del (Homo sapiens, UniProt P13569, DEL508-508).
T1 construct: expressed in transfected cells
T1 sequence (P13569 with tags, fused parts or gaps DEL508-508): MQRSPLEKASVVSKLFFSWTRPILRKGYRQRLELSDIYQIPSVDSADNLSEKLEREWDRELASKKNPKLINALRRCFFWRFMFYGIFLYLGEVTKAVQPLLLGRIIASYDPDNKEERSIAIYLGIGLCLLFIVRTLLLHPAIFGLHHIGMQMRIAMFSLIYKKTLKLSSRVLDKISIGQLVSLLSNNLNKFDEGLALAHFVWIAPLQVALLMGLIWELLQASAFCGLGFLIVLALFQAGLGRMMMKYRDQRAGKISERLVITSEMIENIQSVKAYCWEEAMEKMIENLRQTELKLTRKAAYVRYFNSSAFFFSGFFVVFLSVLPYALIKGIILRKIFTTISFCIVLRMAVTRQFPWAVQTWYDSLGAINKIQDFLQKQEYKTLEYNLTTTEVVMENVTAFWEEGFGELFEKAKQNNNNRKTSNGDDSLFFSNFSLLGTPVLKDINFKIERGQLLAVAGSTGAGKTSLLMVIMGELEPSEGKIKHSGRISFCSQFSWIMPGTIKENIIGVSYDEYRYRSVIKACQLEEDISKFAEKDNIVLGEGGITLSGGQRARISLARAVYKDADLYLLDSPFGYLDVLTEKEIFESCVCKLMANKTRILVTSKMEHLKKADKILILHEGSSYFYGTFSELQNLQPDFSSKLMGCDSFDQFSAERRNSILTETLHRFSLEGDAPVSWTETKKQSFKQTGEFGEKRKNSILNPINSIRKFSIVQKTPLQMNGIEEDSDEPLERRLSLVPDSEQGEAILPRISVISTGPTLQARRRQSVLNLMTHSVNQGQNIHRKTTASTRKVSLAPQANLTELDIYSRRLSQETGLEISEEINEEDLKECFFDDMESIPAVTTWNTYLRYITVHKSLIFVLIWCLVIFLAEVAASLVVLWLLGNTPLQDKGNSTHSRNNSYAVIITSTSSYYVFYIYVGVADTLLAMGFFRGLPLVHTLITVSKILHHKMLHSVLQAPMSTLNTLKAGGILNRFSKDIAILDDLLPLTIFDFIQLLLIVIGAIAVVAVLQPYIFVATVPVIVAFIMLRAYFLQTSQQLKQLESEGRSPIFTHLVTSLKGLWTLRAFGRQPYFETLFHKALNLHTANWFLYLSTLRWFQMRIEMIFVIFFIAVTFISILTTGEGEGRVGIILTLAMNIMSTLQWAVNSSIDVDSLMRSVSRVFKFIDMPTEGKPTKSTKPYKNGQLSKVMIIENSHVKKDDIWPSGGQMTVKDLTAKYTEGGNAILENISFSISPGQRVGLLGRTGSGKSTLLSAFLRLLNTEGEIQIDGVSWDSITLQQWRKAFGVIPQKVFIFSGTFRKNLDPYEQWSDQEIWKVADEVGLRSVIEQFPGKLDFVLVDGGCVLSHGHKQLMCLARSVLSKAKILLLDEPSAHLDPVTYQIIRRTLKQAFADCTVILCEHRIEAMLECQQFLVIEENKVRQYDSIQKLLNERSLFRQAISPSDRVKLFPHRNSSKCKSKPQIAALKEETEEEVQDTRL
Briefly: Protocol 1: membrane potential optical assay (FLIPR III, voltage sensing dye), identification of potentiator compounds. The format is cell-based. The note with it: Table 3, compounds of Table 1. The gist of the method:
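NIH 3T3 fibroblasts stably expressing F508del were cultured at 27° C for 24 hrs for temperature correction, then treated with compounds or DMSO and loaded with a voltage-sensing redistribution dye. Forskolin added with a Cl⁻ gradient activated the channel; membrane-potential fluorescence on FLIPR III reported increased gating.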
`CCOc1cccc(Oc2cccc(S(=O)(=O)NC(=O)c3cccnc3N3CC(C)CC3(C)C)n2)c1` (stereo not drawn) [Compound 1828, N—[[6-(3-ethoxyphenoxy)-2-pyridyl]sulfonyl]-2-(2,2,4-trimethylpyrrolidin-1-yl)pyridine-3-carboxamide]: the EC30 entry is on record as “+++ (“+++” means <3 uM)”.

Regarding `COc1ccc(-c2ccc(C(=O)NS(=O)(=O)c3cccc(N)n3)c(Oc3c(C)cc(C)cc3C)n2)c(F)c1` [Compound 956, N-[(6-amino-2-pyridyl)sulfonyl]-6-(2-fluoro-4-methoxy-phenyl)-2-(2,4,6-trimethylphenoxy)pyridine-3-carboxamide], the EC30 result was “+++ (“+++” means <3 uM)”.

With `Cc1cc(OCC(C)C)nn1-c1ccc(C(=O)NS(=O)(=O)c2cccc(N)n2)c(N2C[C@@H](C)CC2(C)C)n1` [Compound 1407, N-[(6-amino-2-pyridyl)sulfonyl]-6-(3-isobutoxy-5-methyl-pyrazol-1-yl)-2-[(4S)-2,2,4-trimethylpyrrolidin-1-yl]pyridine-3-carboxamide], the EC30 result is “+++ (“+++” means <3 uM)”.

For `COc1cc(-c2cc(F)cc(OCC(C)C)c2)nc(N2[C@H](C)CC[C@@H]2C)c1C(=O)NS(=O)(=O)c1cccc(N)n1` [Compound 1254, N-[(6-amino-2-pyridyl)sulfonyl]-2-[(2S,5R)-2,5-dimethylpyrrolidin-1-yl]-6-(3-fluoro-5-isobutoxy-phenyl)-4-methoxy-pyridine-3-carboxamide], the EC30 entry is “+++ (“+++” means <3 uM)”.

`Cc1ccccc1-c1nc(C(C)(C)C)ccc1C(=O)NS(=O)(=O)c1cccc(N)c1` [Compound 1036, N-(3-aminophenyl)sulfonyl-6-tert-butyl-2-(o-tolyl)pyridine-3-carboxamide]: the EC30 entry is on record as “+ (“+” means greater than 10 uM)”.

As for `CC1CN(c2ncccc2C(=O)NS(=O)(=O)c2cccc(Nc3ccc(C(C)C)cc3)n2)C(C)(C)C1` (stereo not drawn) [Compound 1722, N—[[6-(4-isopropylanilino)-2-pyridyl]sulfonyl]-2-(2,2,4-trimethylpyrrolidin-1-yl)pyridine-3-carboxamide], the EC30 result was “+++ (“+++” means <3 uM)”.

On to `CC1CN(c2ncccc2C(=O)NS(=O)(=O)c2cccc(OCc3cc(-c4ccccc4)on3)n2)C(C)(C)C1` (stereo not drawn) [Compound 1777, N—[[6-[(5-phenylisoxazol-3-yl)methoxy]-2-pyridyl]sulfonyl]-2-(2,2,4-trimethylpyrrolidin-1-yl)pyridine-3-carboxamide], for which the EC30 result was “+++ (“+++” means <3 uM)”.

`CC(C)COc1cc(F)cc(-c2ccc(C(=O)NS(=O)(=O)c3cccc(N)n3)c(N3CC4(CC4)CC3(C)C)n2)c1` [Compound 1746, N-[(6-amino-2-pyridyl)sulfonyl]-2-(5,5-dimethyl-6-azaspiro[2.4]heptan-6-yl)-6-(3-fluoro-5-isobutoxy-phenyl)pyridine-3-carboxamide]: the EC30 entry is “+++ (“+++” means <3 uM)”.

Take `CC(C)COc1ccc(-c2ccc(C(=O)NS(=O)(=O)c3ccc[nH]c3=O)c(N3CCC(C)CC3)n2)cc1` [Compound 1017, 6-(4-isobutoxyphenyl)-2-(4-methyl-1-piperidyl)-N-[(2-oxo-1H-pyridin-3-yl)sulfonyl]pyridine-3-carboxamide]: the EC30 entry was “++ (“++” means between 3 uM and 10 uM)”.

Regarding `C[C@@H]1CN(c2nc(-c3ccccc3)ccc2C(=O)NS(=O)(=O)c2cccnc2N)C(C)(C)C1` [Compound 1958, N-[(2-amino-3-pyridyl)sulfonyl]-6-phenyl-2-[(4S)-2,2,4-trimethylpyrrolidin-1-yl]pyridine-3-carboxamide], the EC30 entry was “+++ (“+++” means <3 uM)”.

Consider `Cc1ccc(-c2ccc(C(=O)NS(=O)(=O)c3cccc(N)n3)c(N3C[C@@H](C)CC3(C)C)n2)c(F)c1` [Compound 1910, N-[(6-amino-2-pyridyl)sulfonyl]-6-(2-fluoro-4-methyl-phenyl)-2-[(4S)-2,2,4-trimethylpyrrolidin-1-yl]pyridine-3-carboxamide], for which the EC30 result is on record as “+++ (“+++” means <3 uM)”.

For the compound `C[C@@H]1CN(c2nc(C3CCCOC3)ccc2C(=O)NS(=O)(=O)c2cccc(N)n2)C(C)(C)C1` (stereo partly drawn) [Compound 1632, N-[(6-amino-2-pyridyl)sulfonyl]-6-tetrahydropyran-3-yl-2-[(4S)-2,2,4-trimethylpyrrolidin-1-yl]pyridine-3-carboxamide], the EC30 entry is “++ (“++” means between 3 uM and 10 uM)”.

Turning to `CC(C)COc1cc(F)cc(-c2ccc(C(=O)NS(=O)(=O)c3cccnc3N)c(N3C[C@H](C)CC3(C)C)n2)c1` [Compound 1444, N-[(2-amino-3-pyridyl)sulfonyl]-6-(3-fluoro-5-isobutoxy-phenyl)-2-[(4R)-2,2,4-trimethylpyrrolidin-1-yl]pyridine-3-carboxamide], the EC30 entry is “+++ (“+++” means <3 uM)”.

Take `CC(C)COc1cc(F)cc(-c2ccc(C(=O)NS(=O)(=O)c3cccc(N)n3)c(C3=CC(C)(C)OC3(C)C)n2)c1` [Compound 1531, N-[(6-amino-2-pyridyl)sulfonyl]-6-(3-fluoro-5-isobutoxy-phenyl)-2-(2,2,5,5-tetramethyl-3-furyl)pyridine-3-carboxamide]: the EC30 result is “++ (“++” means between 3 uM and 10 uM)”.

Turning to `C[C@@H]1CN(c2nc(-c3ccccc3Cl)ccc2C(=O)NS(=O)(=O)c2ccc[nH]c2=O)C(C)(C)C1` [Compound 1784, 6-(2-chlorophenyl)-N-[(2-oxo-1H-pyridin-3-yl)sulfonyl]-2-[(4S)-2,2,4-trimethylpyrrolidin-1-yl]pyridine-3-carboxamide], the EC30 result was “+++ (“+++” means <3 uM)”.

`Cc1ccc(C)c(-c2ccc(C(=O)NS(=O)(=O)c3cccnc3N)c(N3C[C@@H](C)CC3(C)C)n2)c1` [Compound 1951, N-[(2-amino-3-pyridyl)sulfonyl]-6-(2,5-dimethylphenyl)-2-[(4S)-2,2,4-trimethylpyrrolidin-1-yl]pyridine-3-carboxamide]: the EC30 entry was “+++ (“+++” means <3 uM)”.

In the case of `CC(CO)COc1cc(F)cc(-c2ccc(C(=O)NS(=O)(=O)c3cccc(N)n3)c(N3C[C@@H](C)CC3(C)C)n2)c1` (stereo partly drawn) [Compound 1567, N-[(6-amino-2-pyridyl)sulfonyl]-6-[3-fluoro-5-(3-hydroxy-2-methyl-propoxy)phenyl]-2-[(4S)-2,2,4-trimethylpyrrolidin-1-yl]pyridine-3-carboxamide], the EC30 entry is given as “+++ (“+++” means <3 uM)”.

Turning to `CCC(CC)Nc1ccc(-c2ccc(C(=O)NS(=O)(=O)c3cccc(N)n3)c(N3[C@H](C)CC[C@@H]3C)n2)cn1` [Compound 1397, N-[(6-amino-2-pyridyl)sulfonyl]-2-[(2R,5S)-2,5-dimethylpyrrolidin-1-yl]-6-[6-(1-ethylpropylamino)-3-pyridyl]pyridine-3-carboxamide], the EC30 result is reported as “+++ (“+++” means <3 uM)”.

As to `CC(C)COc1cc(-c2ccc(C(=O)NS(=O)(=O)c3ccc[nH]c3=O)c(N3[C@H](C)CC[C@@H]3C)n2)ccc1Cl` [Compound 902, 6-(4-chloro-3-isobutoxy-phenyl)-2-[(2S,5R)-2,5-dimethylpyrrolidin-1-yl]-N-[(2-oxo-1H-pyridin-3-yl)sulfonyl]pyridine-3-carboxamide], the EC30 entry is listed as “+++ (“+++” means <3 uM)”.

As for `CC(C)(C)c1ccc(C(=O)NS(=O)(=O)c2cccc(N)n2)c(N2CC3CC(C3)C2)n1` [Compound 1401, N-[(6-amino-2-pyridyl)sulfonyl]-2-(3-azabicyclo[3.1.1]heptan-3-yl)-6-tert-butyl-pyridine-3-carboxamide], the EC30 result is “+++ (“+++” means <3 uM)”.

Regarding `Cc1cc(C)c(Oc2nc(C(C)(C)C)ccc2C(=O)NS(=O)(=O)c2c(C)cc[nH]c2=O)c(C)c1` [Compound 1311, 6-tert-butyl-N-[(4-methyl-2-oxo-1H-pyridin-3-yl)sulfonyl]-2-(2,4,6-trimethylphenoxy)pyridine-3-carboxamide], the EC30 result is recorded as “+++ (“+++” means <3 uM)”.

In the case of `CCOc1ccc(F)c(-c2ccc(C(=O)NS(=O)(=O)c3ccc[nH]c3=O)c(Oc3c(C)cc(C)cc3C)n2)c1` [Compound 1301, 6-(5-ethoxy-2-fluoro-phenyl)-N-[(2-oxo-1H-pyridin-3-yl)sulfonyl]-2-(2,4,6-trimethylphenoxy)pyridine-3-carboxamide], the EC30 result was “++ (“++” means between 3 uM and 10 uM)”.

For the compound `CC(C)COc1cc(F)cc(-c2ccc(C(=O)NS(=O)(=O)N3CCC[C@@H](N)C3)c(N3C[C@@H](C)CC3(C)C)n2)c1` [Compound 1614, N—[[(3R)-3-amino-1-piperidyl]sulfonyl]-6-(3-fluoro-5-isobutoxy-phenyl)-2-[(4S)-2,2,4-trimethylpyrrolidin-1-yl]pyridine-3-carboxamide], the EC30 entry is “+++ (“+++” means <3 uM)”.

For the compound `Cc1cc(C)c(Oc2nc(-c3cccc(C#N)c3)ccc2C(=O)NS(=O)(=O)c2cccc(N)n2)c(C)c1` [Compound 886, N-[(6-amino-2-pyridyl)sulfonyl]-6-(3-cyanophenyl)-2-(2,4,6-trimethylphenoxy)pyridine-3-carboxamide], the EC30 result is “+++ (“+++” means <3 uM)”.

With `CC1CN(c2ncccc2C(=O)NS(=O)(=O)c2cccc(OCC3CCCCC3)n2)C(C)(C)C1` (stereo not drawn) [Compound 1767, N—[[6-(cyclohexylmethoxy)-2-pyridyl]sulfonyl]-2-(2,2,4-trimethylpyrrolidin-1-yl)pyridine-3-carboxamide], the EC30 result is recorded as “+++ (“+++” means <3 uM)”.

With `CC(C)COc1cc(F)cc(-c2ccc(C(=O)NS(=O)(=O)c3cccc(N)n3)c(OC3CCCCC3)n2)c1` [Compound 1477, N-[(6-amino-2-pyridyl)sulfonyl]-2-(cyclohexoxy)-6-(3-fluoro-5-isobutoxy-phenyl)pyridine-3-carboxamide], the EC30 result is “+++ (“+++” means <3 uM)”.

Regarding `CC(C)(C)c1ccc(C(=O)NS(=O)(=O)c2cccc(N)n2)c(N2CCC(Cc3ccccc3)C2(C)C)n1` (stereo not drawn) [Compound 1852, N-[(6-amino-2-pyridyl)sulfonyl]-2-(3-benzyl-2,2-dimethyl-pyrrolidin-1-yl)-6-tert-butyl-pyridine-3-carboxamide], the EC30 result is given as “+++ (“+++” means <3 uM)”.
